In article PMC12333015, “Profiling the Impact of mGlu7/Elfn1 Protein Interactions on the Pharmacology of mGlu7 Allosteric Modulators” (ACS Chemical Neuroscience, 2025):

Test system: pyramidal cell to SST-IN synapses in the prefrontal cortex
Assay: Ex vivo whole-cell electrophysiology, eEPSCs recorded from SST-INs in prefrontal cortex slices
Assay type: cell-based, mouse
Text: Shown in Figure A are representative traces of eEPSCs recorded from SST-INs in response to 5-pulse stimulation with baseline in black, illustrating the characteristic facilitating nature of pyramidal cell (PYR) to SST-IN synapses.
Transgenic mice (both male and female) expressing tdTomato fluorescent protein in SST-INs were used in this study. They were generated by crossing female homozygous SST-Cre (Sst^tm2.1(cre)Zjh/J, Stock #: 013044, Jackson Laboratories) with male homozygous Ai9 mice (B6;Cg-Gt(Rosa)-26Sor^tm9(CAG‑tdTomato)Hze/J, Stock #: 007909, Jackson Laboratories). All animals were group housed with food and water available ad libitum, kept under a 12 h light/dark cycle with lights on from 6:00 AM to 6:00 PM, and were used for experiments during the light phase. All of the experimental procedures were approved by the Vanderbilt University Animal Care and Use committee and followed the guidelines set forth by the Guide for the Care and Use of Laboratory Animals. […] Whole cell recordings were made from visually identified, fluorescence-labeled SST-INs in layer V of PFC slices under the upright microscope. […] Excitatory postsynaptic currents (EPSCs) were recorded from layer V SST-INs at a holding potential of −80 mV and evoked by electrical stimulation (100 μs duration, applied every 15 s) through a concentric bipolar stimulating electrode placed around 100–150 μm from the recorded cell. The holding potential of −80 mV under voltage clamp is closed to the calculated reversal potential of Cl^– and thus the EPSCs recorded in the present studies had minimal GABAA-mediated component. Electrical stimulation applied near the recorded cell in the cortex presumably activates the local neurons preferentially. […] Data were analyzed using Clampfit 10 (Molecular Devices), Excel (Microsoft), and Prism (GraphPad Software), and presented as mean ± SEM. […]

O=C(Nc1ccc(Oc2ccc(Cl)cn2)c(Cl)c1)c1ccccn1 [VU0422288]
effect on eEPSC amplitude (10 μM VU0422288 alone, compared to baseline): no change in eEPSC amplitude | effect on eEPSCs of combination with L-AP4 (30 μM L-AP4 + 10 μM VU0422288, compared to L-AP4 alone): further depression of eEPSCs
